Test systems include SW-620 colon; NCI-H23 lung; OVCAR-3 ovarian; SR leukemia; A498 renal; UACC-62 melanoma; OVCAR-5 ovarian; SF-539 CNS; PC-3 prostate; MALME-3M melanoma.
Common to all, as to assay: growth of human tumour cells (NCI), 48 h

Structures are written as SMILES. “And” between values parts separate entries of the source, which are not always exact repeats. Identical values can stand only once.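 In this assay, cells in 96-well plates receive the compound at five concentrations for 48 hours. Endpoints are linearly interpolated between the surrounding concentrations. At the GI50, growth is halved. Definition used: TGI = concentration required for complete inhibition of growth.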

Take `Cc1ccc(/C=C/c2c(C(=O)/C=C/c3ccc(C(F)(F)F)cc3)c(C)nc3ccccc23)cc1`: the GI50 in the experiment with SW-620 colon is 1.29 µM; in the experiment on NCI-H23 lung, 1.29 µM; with OVCAR-3 ovarian, 1.55 µM; in the experiment with SR leukemia, 0.451 µM; with A498 renal, 1.77 µM; in the experiment with UACC-62 melanoma, 1.55 µM. In addition, the GI50 is 1.84 µM with OVCAR-5 ovarian, 1.79 µM in the experiment with SF-539 CNS, 1.64 µM in the experiment with PC-3 prostate and 1.7 µM with MALME-3M melanoma. The TGI in the experiment with SW-620 colon amounted to 4.38 µM; in the experiment with NCI-H23 lung, 3.13 µM; in the experiment with OVCAR-3 ovarian, 3.82 µM; in the experiment with SR leukemia, 4.97 µM; with A498 renal, 3.24 µM; in the experiment on UACC-62 melanoma, 3.02 µM. The TGI came to 4.25 µM in the experiment on OVCAR-5 ovarian, 3.26 µM in the experiment with SF-539 CNS, 3.68 µM in the experiment on PC-3 prostate and 3.08 µM with MALME-3M melanoma.
In the case of `O=C(CC(O)(C(F)(F)F)C(F)(F)F)c1cc(CC(=O)C(O)(C(F)(F)F)C(F)(F)F)cc(CC(=O)C(O)(C(F)(F)F)C(F)(F)F)c1`, the TGI in the experiment on SW-620 colon is greater than 10 µM; with NCI-H23 lung, 4.06 µM; in the experiment with OVCAR-3 ovarian it was 3.52 µM; in the experiment on SR leukemia, greater than 10 µM; with A498 renal, 5.43 µM; in the experiment with UACC-62 melanoma it was 4.11 µM. In addition, the TGI with OVCAR-5 ovarian was greater than 9.25 µM; in the experiment with SF-539 CNS it was 4.9 µM; with PC-3 prostate it was 3.95 µM; in the experiment on MALME-3M melanoma, 6.33 µM.
`N=c1ccn2c(n1)OC1C(O)C(CO)OC12` (stereo not drawn): the GI50 in the experiment with SW-620 colon is 5.76 µM and 1.28 µM; in the experiment with NCI-H23 lung, 0.345 µM; in the experiment on OVCAR-3 ovarian, 163 µM and 99.6 µM; with SR leukemia, 2.6 µM; in the experiment on A498 renal, 66.3 µM; in the experiment on UACC-62 melanoma it was 1.55 µM. Besides, the GI50 in the experiment with SF-539 CNS was 31.9 µM; in the experiment with PC-3 prostate, greater than 100 µM; in the experiment on MALME-3M melanoma, 4.22 µM. In addition, the TGI in the experiment on SW-620 colon was greater than 1000 µM; with NCI-H23 lung it was 161 µM and > 100 µM; in the experiment on OVCAR-3 ovarian it was greater than 1000 µM; in the experiment with SR leukemia, greater than 231 µM; in the experiment on A498 renal it was greater than 1000 µM; in the experiment with UACC-62 melanoma it was 212 µM and > 100 µM. Moreover, the TGI was 380 µM and > 100 µM with OVCAR-5 ovarian; greater than 1000 µM in the experiment on SF-539 CNS; greater than 1000 µM in the experiment with PC-3 prostate; 78.5 µM and > 100 µM in the experiment with MALME-3M melanoma.
Regarding `C=CC(=O)N1CCC(C2CCNc3c(C(N)=O)c(-c4ccc(Oc5ccccc5)cc4)nn32)CC1` (stereo not drawn), the GI50 is 31.8 µM in the experiment on SW-620 colon; 16.5 µM with NCI-H23 lung; 12.2 µM with OVCAR-3 ovarian; 10.4 µM in the experiment with SR leukemia; 2.33 µM in the experiment with A498 renal; 10.6 µM in the experiment with UACC-62 melanoma. For the same molecule, the GI50 in the experiment on OVCAR-5 ovarian was 31.2 µM; in the experiment with SF-539 CNS, 13.5 µM; in the experiment with PC-3 prostate, 22 µM; with MALME-3M melanoma, 14 µM. The TGI in the experiment with SW-620 colon is greater than 100 µM; in the experiment on NCI-H23 lung, 39.9 µM; with OVCAR-3 ovarian, 56.2 µM; in the experiment with SR leukemia, 46.8 µM; in the experiment on A498 renal, 7.19 µM; with UACC-62 melanoma, 27 µM. Further, the TGI is greater than 100 µM in the experiment on OVCAR-5 ovarian, 43 µM in the experiment on SF-539 CNS, 69.6 µM in the experiment on PC-3 prostate and 34.6 µM with MALME-3M melanoma.
Take `Ic1ccc(-n2nnnc2-c2cnoc2-c2ccccc2)cc1`: the GI50 was 39.6 µM with SW-620 colon; 35.4 µM in the experiment with NCI-H23 lung; 46.4 µM with OVCAR-3 ovarian; 37.7 µM in the experiment with SR leukemia; 22 µM with A498 renal; 29.3 µM in the experiment on UACC-62 melanoma. Besides, the GI50 in the experiment on OVCAR-5 ovarian was greater than 100 µM; with PC-3 prostate, greater than 34.4 µM; with MALME-3M melanoma, greater than 44.2 µM. Further, the TGI in the experiment on SW-620 colon is greater than 100 µM; in the experiment with NCI-H23 lung, greater than 81 µM; in the experiment on OVCAR-3 ovarian, greater than 100 µM; in the experiment with SR leukemia, greater than 100 µM; with A498 renal it was 74.4 µM; in the experiment with UACC-62 melanoma, greater than 83.6 µM. In addition, the TGI is greater than 100 µM in the experiment on OVCAR-5 ovarian, 3.98 µM in the experiment on SF-539 CNS, greater than 71.4 µM with PC-3 prostate and greater than 73.6 µM in the experiment with MALME-3M melanoma.

Values taken from PubChem BioAssay (NCI).
